PubChem BioAssay AID328 (DTP/NCI, 2004)
Where “and” joins values, the source holds several entries; their conditions need not be identical. Identical values can stand only once. Inconclusive results and toxic doses are left out. The calls were made as follows: active = survival T/C of 150% or more; inactive = T/C below 125% in these data.

Tested on: BDF1 mice, P388 leukemia ip, median survival T/C
Test: NCI In Vivo Anticancer Drug Screen. Data for tumor model P388 Leukemia (intraperitoneal) in B6D2F1 (BDF1) mice
Settings: endpoint: median survival time, higher = longer survival
Summary of the method: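 Reported as T/C, where T is the survival measurement in dosed animals and C the same measurement in vehicle controls.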

[1] = dose: 6.25 mg/kg/injection, schedule: Q01DX009 (ip), vehicle: saline
[2] = dose: 12.5 mg/kg/injection, schedule: Q01DX009 (ip), vehicle: saline
[3] = dose: 25.0 mg/kg/injection, schedule: Q04DX003 (ip), vehicle: saline with Tween-80
[4] = dose: 25.0 mg/kg/injection, schedule: Q01DX009 (ip), vehicle: saline with Tween-80
[5] = dose: 50.0 mg/kg/injection, schedule: Q01DX009 (ip), vehicle: saline with Tween-80
[6] = dose: 50.0 mg/kg/injection, schedule: Q04DX003 (ip), vehicle: saline with Tween-80
[7] = dose: 100.0 mg/kg/injection, schedule: Q04DX003 (ip), vehicle: saline with Tween-80
[8] = dose: 25.0 mg/kg/injection, schedule: Q01DX009 (ip), vehicle: saline
[9] = dose: 100.0 mg/kg/injection, schedule: Q01DX009 (ip), vehicle: saline with Tween-80
[10] = dose: 200.0 mg/kg/injection, schedule: Q01DX009 (ip), vehicle: saline with Tween-80
[11] = dose: 50.0 mg/kg/injection, schedule: Q01DX009 (ip), vehicle: saline
[12] = dose: 100.0 mg/kg/injection, schedule: Q01DX009 (ip), vehicle: saline
[13] = dose: 100.0 mg/kg/injection, schedule: Q04DX003 (ip), vehicle: Klucel (hydroxypropylcellulose) (HPC)
[14] = dose: 200.0 mg/kg/injection, schedule: Q04DX003 (ip), vehicle: Klucel (hydroxypropylcellulose) (HPC)
[15] = dose: 400.0 mg/kg/injection, schedule: Q04DX003 (ip), vehicle: Klucel (hydroxypropylcellulose) (HPC)

Measured: T/C

Cc1c(CNc2ccc(C(=O)NC(CC(=O)O)C(=O)O)cc2)ccc2nc(N)nc(N)c12 (centres undefined)
active: dose: 16.5 mg/kg/injection, schedule: Q04DX003 (ip), vehicle: saline with Tween-80 254 % of control | [3] 272 % of control
inactive: [1] 100 % of control | [2] 90 % of control | dose: 37.5 mg/kg/injection, schedule: Q04DX003 (ip), vehicle: saline with Tween-80 104 % of control

C=CCN1CSC(=S)N(CC=C)C1
inactive: [4] 100 % of control | [5] 87 % of control

c1c(NC2=NCCO2)cc2c3c1CCCN3CCC2
inactive: dose: 12.5 mg/kg/injection, schedule: Q01DX009 (ip), vehicle: saline with Tween-80 104 % of control | [4] 118 % of control | [5] 113 % of control

O=[N+]([O-])c1ccc(N(CCO)CCO)c2nonc12
inactive: dose: 15.0 mg/kg/injection, schedule: Q01DX009 (ip), vehicle: saline with Tween-80 101 % of control | [3] 114 % of control | dose: 30.0 mg/kg/injection, schedule: Q01DX009 (ip), vehicle: saline with Tween-80 100 % of control | [6] 97 % of control | dose: 60.0 mg/kg/injection, schedule: Q01DX009 (ip), vehicle: saline with Tween-80 101 % of control | [7] 98 % of control

CC(C)CCCC(C)C1CCC2C3CC=C4CC([S+](C)C)CCC4(C)C3CCC12C (centres undefined)
inactive: [2] 109 % of control | [8] 86 % of control

CN1C(=O)C(=Cc2ccc(N(C)C)cc2)C(=O)N(C)C1=O
inactive: [5] 103 % of control | [9] 99 % of control | [10] 98 % of control

C[n+]1ccc(C#N)c2ccccc21
inactive: dose: 1.1 mg/kg/injection, schedule: Q04DX003 (ip), vehicle: saline 92 % of control and 100 % of control | dose: 1.71 mg/kg/injection, schedule: Q04DX003 (ip), vehicle: saline 95 % of control | dose: 2.5 mg/kg/injection, schedule: Q04DX003 (ip), vehicle: saline 88 % of control and 95 % of control | dose: 3.12 mg/kg/injection, schedule: Q01DX009 (ip), vehicle: saline 104 % of control | dose: 3.43 mg/kg/injection, schedule: Q04DX003 (ip), vehicle: saline 120 % of control | [1] 118 % of control | dose: 6.87 mg/kg/injection, schedule: Q04DX003 (ip), vehicle: saline 100 % of control | dose: 7.5 mg/kg/injection, schedule: Q04DX003 (ip), vehicle: saline with Tween-80 91 % of control | dose: 11.0 mg/kg/injection, schedule: Q01DX009 (ip), vehicle: saline 120 % of control | [2] 118 % of control | dose: 15.0 mg/kg/injection, schedule: Q04DX003 (ip), vehicle: saline with Tween-80 104 % of control

CCN(CC)CCCC(C)Nc1ncnc(N)c1[N+](=O)[O-] (centres undefined)
inactive: [8] 120 % of control | dose: 25.0 mg/kg/injection, schedule: Q04DX003 (ip), vehicle: saline 90 % of control | [11] 120 % of control | dose: 50.0 mg/kg/injection, schedule: Q04DX003 (ip), vehicle: saline 95 % of control | [12] 90 % of control | dose: 100.0 mg/kg/injection, schedule: Q04DX003 (ip), vehicle: saline 100 % of control

COB(OC)OC
inactive: [13] 91 % of control | [14] 104 % of control | [15] 91 % of control

COc1ccc2[nH]ccc(=O)c2c1
inactive: [5] 102 % of control | [9] 96 % of control | [10] 105 % of control

CCN1/C(=C/C(C)=C/c2sc3ccccc3[n+]2CC)Sc2ccccc21
inactive: dose: 25.0 micrograms/kg/injection, schedule: Q01DX009 (ip), vehicle: Klucel (hydroxypropylcellulose) (HPC) 116 % of control | dose: 50.0 micrograms/kg/injection, schedule: Q01DX009 (ip), vehicle: Klucel (hydroxypropylcellulose) (HPC) 109 % of control and 120 % of control | dose: 100.0 micrograms/kg/injection, schedule: Q01DX009 (ip), vehicle: Klucel (hydroxypropylcellulose) (HPC) 106 % of control and 108 % of control | dose: 200.0 micrograms/kg/injection, schedule: Q01DX009 (ip), vehicle: Klucel (hydroxypropylcellulose) (HPC) 97 % of control | dose: 400.0 micrograms/kg/injection, schedule: Q01DX009 (ip), vehicle: Klucel (hydroxypropylcellulose) (HPC) 106 % of control

O=[N+]([O-])c1ccc(-c2nnc3ncccn23)cc1
inactive: [5] 102 % of control | [9] 98 % of control | [10] 90 % of control

[O-][n+]1c(-c2ccccc2)c(C(O)c2ccccc2)nc2ccccc21 (centres undefined)
inactive: dose: 100.0 mg/kg/injection, schedule: Q01DX001 (ip), vehicle: saline with Tween-80 105 % of control | dose: 200.0 mg/kg/injection, schedule: Q01DX001 (ip), vehicle: saline with Tween-80 94 % of control | dose: 400.0 mg/kg/injection, schedule: Q01DX001 (ip), vehicle: saline with Tween-80 96 % of control

C[n+]1c(/C=C/c2ccc(N(CCC(=O)O)CCC(=O)O)cc2)ccc2cc(Cl)ccc21
inactive: dose: 12.5 mg/kg/injection, schedule: Q01DX001 (ip), vehicle: saline with Tween-80 109 % of control | dose: 25.0 mg/kg/injection, schedule: Q01DX001 (ip), vehicle: saline with Tween-80 88 % of control

CCCCC(CC)COC(=O)CC(CC(=O)OCC(CC)CCCC)C(=O)OCC(CC)CCCC (centres undefined)
inactive: [5] 92 % of control | [9] 92 % of control | [10] 92 % of control

Cc1nc2n(c1/C=N/NC(N)=S)CCS2
inactive: dose: 25.0 mg/kg/injection, schedule: Q01DX001 (ip), vehicle: Klucel (hydroxypropylcellulose) (HPC) 102 % of control | dose: 50.0 mg/kg/injection, schedule: Q01DX001 (ip), vehicle: Klucel (hydroxypropylcellulose) (HPC) 98 % of control | dose: 100.0 mg/kg/injection, schedule: Q01DX001 (ip), vehicle: Klucel (hydroxypropylcellulose) (HPC) 98 % of control

CCCCCCCCCCCCCCCCn1/c(=N/N=C/c2ccccc2S(=O)(=O)O)sc2ccccc21
inactive: [13] 104 % of control | dose: 200.0 mg/kg/injection, schedule: Q01DX009 (ip), vehicle: Klucel (hydroxypropylcellulose) (HPC) 95 % of control | [14] 118 % of control | dose: 400.0 mg/kg/injection, schedule: Q01DX009 (ip), vehicle: Klucel (hydroxypropylcellulose) (HPC) 95 % of control | [15] 95 % of control

CCCCCCCCCCCCCCCC(=O)N(CC#N)CC#N
inactive: [13] 100 % of control | [14] 100 % of control | [15] 90 % of control

CN1CCN(C(=O)Cc2c[nH]c3ccccc23)CC1
inactive: dose: 6.25 mg/kg/injection, schedule: Q01DX009 (ip), vehicle: saline with Tween-80 105 % of control | dose: 12.5 mg/kg/injection, schedule: Q04DX003 (ip), vehicle: saline with Tween-80 111 % of control | [3] 101 % of control | [5] 95 % of control | [6] 104 % of control | [9] 89 % of control | [7] 113 % of control

CC1=NNC(=O)/C1=C\c1ccc(N(C)C)cc1
inactive: [4] 95 % of control | [9] 93 % of control

CC(=O)Nc1c(Cl)c(Cl)c2c(c1Cl)Cc1cc(Br)ccc1-2
inactive: dose: 8.25 mg/kg/injection, schedule: Q01DX009 (ip), vehicle: Klucel (hydroxypropylcellulose) (HPC) 100 % of control and 113 % of control | dose: 12.5 mg/kg/injection, schedule: Q01DX009 (ip), vehicle: Klucel (hydroxypropylcellulose) (HPC) 100 % of control and 118 % of control | dose: 18.75 mg/kg/injection, schedule: Q01DX009 (ip), vehicle: Klucel (hydroxypropylcellulose) (HPC) 100 % of control and 109 % of control | dose: 25.0 mg/kg/injection, schedule: Q01DX009 (ip), vehicle: Klucel (hydroxypropylcellulose) (HPC) 110 % of control | [8] 90 % of control | [11] 95 % of control

Cc1ccc(C)c(OS(=O)(=O)c2ccc([N+](=O)[O-])cc2)c1
inactive: dose: 100.0 mg/kg/injection, schedule: Q01DX001 (ip), vehicle: saline sonified 100 % of control | dose: 200.0 mg/kg/injection, schedule: Q01DX001 (ip), vehicle: saline sonified 104 % of control | dose: 400.0 mg/kg/injection, schedule: Q01DX001 (ip), vehicle: saline sonified 90 % of control

Brc1c(-c2ccccc2)cc(-c2ccccc2)cc1-c1ccccc1
inactive: [13] 108 % of control | [14] 95 % of control | [15] 95 % of control

NC(N)=NC(N)=Nc1ccc(Cl)c(Cl)c1
inactive: [4] 98 % of control | [5] 121 % of control

CC(CN1CC(=O)NC(=O)C1)N1CC(=O)NC(=O)C1.[Cl-].[Pt+4] (centres undefined)
inactive: [2] 100 % of control | [8] 95 % of control and 118 % of control | [11] 97 % of control | [12] 91 % of control | dose: 200.0 mg/kg/injection, schedule: Q01DX009 (ip), vehicle: saline 105 % of control
